Experimental data taken from PMC4503722, “Novel Phenotypic Outcomes Identified for a Public Collection of Approved Drugs from a Publicly Accessible Panel of Assays” (PLoS ONE, 2015).

Key:
SW480 = test: cells; format: cell-based; settings: basal; for Basal_Viability ATP SW480 IC50/EC50 / IC50: assay number 24; for IC50: read-out: Basal_Viability ATP SW480 summarized IC50
SNU-C1 = test: cells; format: cell-based; settings: basal; for Basal_Viability ATP SNU-C1 IC50/EC50 / IC50: assay number 30; for IC50: read-out: Basal_Viability ATP SNU-C1 summarized IC50
HT-29 = test: cells; format: cell-based; settings: basal; for Basal_Viability ATP HT-29 IC50/EC50 / IC50: assay number 28; for IC50: read-out: Basal_Viability ATP HT-29 summarized IC50
RKO = test: cells; format: cell-based; settings: basal; for Basal_Viability ATP RKO IC50/EC50 / IC50: assay number 29; for IC50: read-out: Basal_Viability ATP RKO summarized IC50
[1] = test system: ECFC/ADSC co-culture cell nuclei number; settings: for IC50: read-out: VEGF_ADSC\ECFC Angio Hoechst NucArea summarized IC50
[2] = test system: endothelial tube formation in co-cultures of ECFCs and ADSCs treated with VEGF; test: cells; format: cell-based, human; settings: for IC50: read-out: VEGF_ADSC\ECFC Angio CD31 TubeArea summarized IC50
Colo320 = test: cells; format: cell-based; settings: basal; for Basal_Viability ATP Colo 320 IC50/EC50 / IC50: assay number 27; for IC50: read-out: Basal_Viability ATP Colo 320 summarized IC50
DLD-1 = test: cells; format: cell-based; settings: basal; for Basal_Viability ATP DLD-1 IC50/EC50 / IC50: assay number 23; for IC50: read-out: Basal_Viability ATP DLD-1 summarized IC50
[3] = test system: HCT116 cells treated with a GSK3β inhibitor; test: cells; format: cell-based; settings: for GSK3b inh pretreated_Viability ATP HCT116 IC50/EC50 / IC50: assay number 26, GSK3b inhibitor pretreated; for IC50: read-out: GSK3b inh pretreated_Viability ATP HCT116 summarized IC50; for IC50/EC50, GSK3b inh pretreated_Viability ATP HCT116 (assay number 26): GSK3b inh pretreated
HCT116 = test: cells; format: cell-based; settings: basal; for Basal_Viability ATP HCT116 IC50/EC50 / IC50: assay number 25; for IC50: read-out: Basal_Viability ATP HCT116 summarized IC50

COc1ccc2c(c1)c1c3n2CCN(C)C3=NCC1 [NCGC00072886-03]
> 10 µM: VEGF_ADSC\ECFC Angio Hoechst NucArea IC50/EC50 [1] | VEGF_ADSC\ECFC Angio CD31 TubeArea IC50/EC50 [2]
> 20 µM: Basal_Viability ATP SW480 IC50/EC50 (SW480) | Basal_Viability ATP SNU-C1 IC50/EC50 (SNU-C1) | Basal_Viability ATP HT-29 IC50/EC50 (HT-29) | Basal_Viability ATP RKO IC50/EC50 (RKO) | Basal_Viability ATP Colo 320 IC50/EC50 (Colo320) | Basal_Viability ATP DLD-1 IC50/EC50 (DLD-1) | GSK3b inh pretreated_Viability ATP HCT116 IC50/EC50 [3] | Basal_Viability ATP HCT116 IC50/EC50 (HCT116)

CNC(=O)Oc1cccc2ccccc12 [NCGC00090680-06]
> 10 µM: IC50 [1] | IC50 [2]
> 20 µM: IC50 (SW480) | IC50 (SNU-C1) | IC50 (HT-29) | IC50 (RKO) | IC50 (Colo320) | IC50 (DLD-1) | IC50 [3] | IC50 (HCT116)

COC(=O)c1ccccc1C(=O)OC [NCGC00090692-06]
> 20 µM: IC50 (SW480) | IC50 (SNU-C1) | IC50 (HT-29) | IC50 (RKO) | IC50 (Colo320) | IC50 (DLD-1) | IC50 [3] | IC50 (HCT116)
> 10 µM: IC50 [1] | IC50 [2]

CC1=C(/C=C/C(C)=C/C=C/C(C)=C/C(=O)Nc2ccc(O)cc2)C(C)(C)CCC1 [NCGC00090752-12]
6.2365 µM: IC50/EC50, VEGF_ADSC\ECFC Angio Hoechst NucArea (assay number 3) [1]
9.4899 µM: IC50/EC50, Basal_Viability ATP DLD-1 (assay number 23) (DLD-1)
6.6943 µM: IC50/EC50, Basal_Viability ATP SNU-C1 (assay number 30) (SNU-C1)
2.1199 µM: IC50/EC50, Basal_Viability ATP HT-29 (assay number 28) (HT-29)
1.3414 µM: IC50/EC50, VEGF_ADSC\ECFC Angio CD31 TubeArea (assay number 2) [2]
5.2999 µM: IC50/EC50, Basal_Viability ATP HCT116 (assay number 25) (HCT116)
4.8504 µM: IC50/EC50, Basal_Viability ATP SW480 (assay number 24) (SW480)
3.2421 µM: IC50/EC50, Basal_Viability ATP Colo 320 (assay number 27) (Colo320)
1.718 µM: IC50/EC50, Basal_Viability ATP RKO (assay number 29) (RKO)
4.9507 µM: IC50/EC50, GSK3b inh pretreated_Viability ATP HCT116 (assay number 26) [3]

CCCCCCCCOC(=O)c1ccccc1C(=O)OCCCCCCCC [NCGC00090781-05]
> 20 µM: Basal_Viability ATP SW480 IC50/EC50 (SW480) | Basal_Viability ATP SNU-C1 IC50/EC50 (SNU-C1) | Basal_Viability ATP HT-29 IC50/EC50 (HT-29) | Basal_Viability ATP RKO IC50/EC50 (RKO) | Basal_Viability ATP Colo 320 IC50/EC50 (Colo320) | Basal_Viability ATP DLD-1 IC50/EC50 (DLD-1) | GSK3b inh pretreated_Viability ATP HCT116 IC50/EC50 [3] | Basal_Viability ATP HCT116 IC50/EC50 (HCT116)
> 10 µM: VEGF_ADSC\ECFC Angio Hoechst NucArea IC50/EC50 [1] | VEGF_ADSC\ECFC Angio CD31 TubeArea IC50/EC50 [2]

CCOC(=O)c1ccccc1C(=O)OCC [NCGC00090974-06]
> 20 µM: Basal_Viability ATP SW480 IC50/EC50 (SW480) | Basal_Viability ATP SNU-C1 IC50/EC50 (SNU-C1) | Basal_Viability ATP HT-29 IC50/EC50 (HT-29) | Basal_Viability ATP RKO IC50/EC50 (RKO) | Basal_Viability ATP Colo 320 IC50/EC50 (Colo320) | Basal_Viability ATP DLD-1 IC50/EC50 (DLD-1) | GSK3b inh pretreated_Viability ATP HCT116 IC50/EC50 [3] | Basal_Viability ATP HCT116 IC50/EC50 (HCT116)
> 10 µM: VEGF_ADSC\ECFC Angio Hoechst NucArea IC50/EC50 [1] | VEGF_ADSC\ECFC Angio CD31 TubeArea IC50/EC50 [2]

CC/C=C\C/C=C\C/C=C\CCCCCCCC(=O)O [NCGC00091058-11]
> 10 µM: IC50/EC50, VEGF_ADSC\ECFC Angio Hoechst NucArea (assay number 3) [1] | IC50/EC50, VEGF_ADSC\ECFC Angio CD31 TubeArea (assay number 2) [2]
> 20 µM: IC50/EC50, Basal_Viability ATP SW480 (assay number 24) (SW480) | IC50/EC50, Basal_Viability ATP SNU-C1 (assay number 30) (SNU-C1) | IC50/EC50, Basal_Viability ATP HT-29 (assay number 28) (HT-29) | IC50/EC50, Basal_Viability ATP RKO (assay number 29) (RKO) | IC50/EC50, Basal_Viability ATP Colo 320 (assay number 27) (Colo320) | IC50/EC50, Basal_Viability ATP DLD-1 (assay number 23) (DLD-1) | IC50/EC50, GSK3b inh pretreated_Viability ATP HCT116 (assay number 26) [3] | IC50/EC50, Basal_Viability ATP HCT116 (assay number 25) (HCT116)
